Data on 29 molecules can be found in US9156796B2, “Benzoimidazole-carboxylic acid amide derivatives as APJ receptor modulators” (SANOFI, priority 2013, dated 2015).

As a reminder, the EC50 is the concentration needed to bring the measured effect to its halfway point.

Structures are written as SMILES.

In the first assay the target is T1, human apelin receptor (Homo sapiens, UniProt P35414).
T1 construct: expressed in transfected cells
T1 sequence (P35414 1-380): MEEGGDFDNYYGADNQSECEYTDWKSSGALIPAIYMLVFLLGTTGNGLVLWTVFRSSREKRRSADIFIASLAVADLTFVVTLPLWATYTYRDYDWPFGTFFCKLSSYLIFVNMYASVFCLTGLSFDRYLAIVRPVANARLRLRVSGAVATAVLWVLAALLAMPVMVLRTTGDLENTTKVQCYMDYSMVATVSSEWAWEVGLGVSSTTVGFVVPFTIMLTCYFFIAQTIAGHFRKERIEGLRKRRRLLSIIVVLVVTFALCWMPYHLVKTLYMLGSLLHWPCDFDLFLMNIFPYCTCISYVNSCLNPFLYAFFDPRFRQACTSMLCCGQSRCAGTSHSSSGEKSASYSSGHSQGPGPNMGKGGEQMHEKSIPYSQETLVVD
As to the kind of experiment: Determination of agonism on the human apelin receptor by a calcium fluorescence assay (FLIPR). In kind it is cell-based. Particulars: EC50 (APJ agonism), HEK293 cells stably transfected with human apelin receptor and Giaq protein, Fluo-4 calcium fluorescence. In a few lines: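 HEK293 cells stably co-expressing human apelin receptor and promiscuous Giaq, loaded 1 h at 37 °C with Fluo-4 (4 μM) in probenecid-containing Hepes buffer, pH 7.4. Compounds, at least 7 concentrations in triplicate, added in FLIPR Tetra; peak calcium fluorescence normalized to 1 μM apelin-13 as 100% to derive EC50.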
In the case of `CCC(CC)n1c(CC2CCCC2)nc2cc(C(=O)N[C@H](CO)CCSC)ccc21` [Example 178, 2-Cyclopentylmethyl-1-(1-ethyl-propyl)-1H-benzoimidazole-5-carboxylic acid ((S)-1-hydroxymethyl-3-methylsulfanyl-propyl)-amide], the EC50 is 17400 nM.

Still in this assay, the particulars now being: HEK293 cells stably transfected with human apelin receptor and Giaq protein, Fluo-4 calcium fluorescence, read-out: EC50 (APJ agonism).
Consider `C[C@@H]1CCCC[C@H]1n1c(Cc2cccs2)nc2cc(C(=O)NC(CC3CCC(C)(C)CC3)C(=O)O)ccc21` (stereo partly drawn) [Example 33, 3-(4,4-Dimethyl-cyclohexyl)-2-{[1-((1R,2R)-2-methyl-cyclohexyl)-2-thiophen-2-ylmethyl-1H-benzoimidazole-5-carbonyl]-amino}-propionic acid], for which the half-maximal effective concentration (EC50) came out at 3210 nM. In the case of `CCC(CC)n1c(Cc2cccs2)nc2cc(C(=O)N[C@H](CCC(=O)O)C(C)C)ccc21` [Example 162, (R)-4-{[1-(1-Ethyl-propyl)-2-thiophen-2-ylmethyl-1H-benzoimidazole-5-carbonyl]-amino}-5-methyl-hexanoic acid], the EC50 is 1100 nM.

On to `CC(C)C[C@@H](CC(=O)O)NC(=O)c1ccc2c(c1)nc(Cc1cccs1)n2C1CCCCC1C` (stereo partly drawn) [Example 101, (S)-5-Methyl-3-{[1-(2-methyl-cyclohexyl)-2-thiophen-2-ylmethyl-1H-benzoimidazole-5-carbonyl]-amino}-hexanoic acid], for which the EC50 stood at 106 nM. `CCC(CC)n1c(Cc2cccs2)nc2cc(C(=O)N[C@@H](CC(C)C)C(=O)NCC(C)(C)CN3CCCCCC3)ccc21` [Example 287, 1-(1-Ethyl-propyl)-2-thiophen-2-ylmethyl-1H-benzoimidazole-5-carboxylic acid [(S)-1-(3-azepan-1-yl-2,2-dimethyl-propylcarbamoyl)-3-methyl-butyl]-amide]: the EC50 worked out at 408 nM. As to `CCC(CC)n1c(CC2CCCC2)nc2cc(C(=O)N[C@H](CO)C(C)C)ccc21` [Example 187, 2-Cyclopentylmethyl-1-(1-ethyl-propyl)-1H-benzoimidazole-5-carboxylic acid ((S)-1-hydroxymethyl-2-methyl-propyl)-amide], the EC50 worked out at 29000 nM. With `CCC[C@H](CO)NC(=O)c1ccc2c(c1)nc(Cc1cccs1)n2C(CC)CC` [Example 200, 1-(1-Ethyl-propyl)-2-thiophen-2-ylmethyl-1H-benzoimidazole-5-carboxylic acid ((R)-1-hydroxymethyl-butyl)-amide], the EC50 is 8180 nM. Regarding `CC(C)C[C@@H](CC(=O)O)NC(=O)c1ccc2c(c1)nc(Cc1cncs1)n2[C@@H]1CCCC[C@H]1C` [Example 106, (S)-5-Methyl-3-{[1-((1R,2R)-2-methyl-cyclohexyl)-2-thiazol-5-ylmethyl-1H-benzoimidazole-5-carbonyl]-amino}-hexanoic acid], the EC50 came to 48 nM. The same measure, in the same setting: with `CCC(C)Cn1c(Cc2ccsc2)nc2cc(C(=O)N[C@@H](CC(C)C)C(=O)O)ccc21` (stereo partly drawn) [Example 137, (S)-4-Methyl-2-{[1-(2-methyl-butyl)-2-thiophen-3-ylmethyl-1H-benzoimidazole-5-carbonyl]-amino}-pentanoic acid] the figure was 9500 nM; with `CCCCC(CC(=O)O)NC(=O)c1ccc2c(c1)nc(Cc1cccs1)n2C(CC)CC` (single isomer, unassigned) [Example 452], 49 nM; with `CCC(C)[C@H](NC(=O)c1ccc2c(c1)nc(Cc1cccs1)n2C(CC)CC)C(=O)O` (stereo partly drawn) [Example 121, (S)-2-{[1-(1-Ethyl-propyl)-2-thiophen-2-ylmethyl-1H-benzoimidazole-5-carbonyl]-amino}-3-methyl-pentanoic acid], 74 nM.

In the case of `CCC(CC)n1c(Cc2cccs2)nc2cc(C(=O)N[C@@H](CC(C)C)C(=O)N3CCCN(Cc4ccccc4)CC3)ccc21` [Example 323, 1-(1-Ethyl-propyl)-2-thiophen-2-ylmethyl-1H-benzoimidazole-5-carboxylic acid [(S)-1-(4-benzyl-[1,4]diazepane-1-carbonyl)-3-methyl-butyl]-amide], the EC50 is 6740 nM. The same measure, in the same setting: with `CCC(CC)n1c(Cc2cccs2)nc2cc(C(=O)N[C@H](C(=O)O)[C@H](C)CC)ccc21` [Example 153, (2S,3R)-2-{[1-(1-Ethyl-propyl)-2-thiophen-2-ylmethyl-1H-benzoimidazole-5-carbonyl]-amino}-3-methyl-pentanoic acid] the figure was 350 nM.

As for `C[C@@H]1CCCC[C@H]1n1c(Cc2cccs2)nc2cc(C(=O)N[C@@H](CC3CCCCC3)[C@H](O)CC(=O)O)ccc21` [Example 74, (3R,4S)-5-Cyclohexyl-3-hydroxy-4-{[1-((1R,2R)-2-methyl-cyclohexyl)-2-thiophen-2-ylmethyl-1H-benzoimidazole-5-carbonyl]-amino}-pentanoic acid], the EC50 is 140 nM.

Turning to `CCC(CC)n1c(Cc2cscn2)nc2cc(C(=O)N[C@@H](CC(C)C)C(=O)O)ccc21` [Example 84, (S)-2-{[1-(1-Ethyl-propyl)-2-thiazol-4-ylmethyl-1H-benzoimidazole-5-carbonyl]-amino}-4-methyl-pentanoic acid], the EC50 amounted to 2950 nM.

With `CC(C)C[C@H](NC(=O)c1ccc2c(c1)nc(Cc1ccco1)n2C1CCCCC1C)C(=O)O` (single isomer, unassigned) [Example 417], the 50% effective concentration (EC50) came out at 715 nM. As to `CCC(CC)n1c(Cc2cccs2)nc2cc(C(=O)N[C@@H](CC(C)C)C(=O)N3CCN(c4ccc(F)cc4)CC3)ccc21` [Example 270, 1-(1-Ethyl-propyl)-2-thiophen-2-ylmethyl-1H-benzoimidazole-5-carboxylic acid {(S)-1-[4-(4-fluoro-phenyl)-piperazine-1-carbonyl]-3-methyl-butyl}-amide], the EC50 came to 10800 nM. For `CCC(C)n1c(Cc2cccs2)nc2cc(C(=O)N[C@@H](CC3CCCCC3)C(=O)O)ccc21` (stereo partly drawn) [Example 140, (S)-2-[(1-sec-Butyl-2-thiophen-2-ylmethyl-1H-benzoimidazole-5-carbonyl)-amino]-3-cyclohexyl-propionic acid], the EC50 is 3800 nM.

For `CCC(CC)n1c(Cc2cscn2)nc2cc(C(=O)N[C@H](C(=O)O)[C@@H](C)CC)ccc21` [Example 85, (2S,3S)-2-{[1-(1-Ethyl-propyl)-2-thiazol-4-ylmethyl-1H-benzoimidazole-5-carbonyl]-amino}-3-methyl-pentanoic acid], the EC50 was determined as 7800 nM.

Take `CCC(CC)n1c(Cc2ccco2)nc2cc(C(=O)N[C@H](CC(=O)O)CC(C)C)ccc21` [Example 96, (S)-3-{[1-(1-Ethyl-propyl)-2-furan-2-ylmethyl-1H-benzoimidazole-5-carbonyl]-amino}-5-methyl-hexanoic acid]: the EC50 is less than 41 nM. Still for that read-out and setting: the result for `CC(C)C[C@H](NC(=O)c1ccc2c(c1)nc(Cc1ccco1)n2C1CCCCC1C)C(=O)O` (single isomer, unassigned) [Example 419] reads 313 nM; that for `CC(C)C[C@H](NC(=O)c1ccc2c(c1)nc(Cc1cccs1)n2C1CCCCCC1)C(=O)O` [Example 111, (S)-2-[(1-Cycloheptyl-2-thiophen-2-ylmethyl-1H-benzoimidazole-5-carbonyl)-amino]-4-methyl-pentanoic acid], 579 nM. In the case of `CC(C)C[C@H](NC(=O)c1ccc2c(c1)nc(CC1CCCC1)n2C1CCCCC1)C(=O)O` [Example 112, (S)-2-[(1-Cyclohexyl-2-cyclopentylmethyl-1H-benzoimidazole-5-carbonyl)-amino]-4-methyl-pentanoic acid], the EC50 is 12800 nM. As for `CCC(CC)n1c(Cc2ccco2)nc2cc(C(=O)NC(C)(Cc3ccccc3)C(=O)O)ccc21` (centres unmarked) [Example 2, 2-{[1-(1-Ethyl-propyl)-2-furan-2-ylmethyl-1H-benzoimidazole-5-carbonyl]-amino}-2-methyl-3-phenyl-propionic acid], the EC50 was found to be 20100 nM. Take `CCC[C@H](NC(=O)c1ccc2c(c1)nc(Cc1cccs1)n2C1CCCCC1C(F)(F)F)C(=O)O` (stereo partly drawn) [Example 88, (S)-2-{[2-Thiophen-2-ylmethyl-1-(2-trifluoromethyl-cyclohexyl)-1H-benzoimidazole-5-carbonyl]-amino}-pentanoic acid]: the EC50 was found to be 754 nM. On the same count and under the same terms, with `CCC(CC)n1c(Cc2cccs2)nc2cc(C(=O)N[C@@H](CC(C)C)C(=O)NCc3ccc(OC)cc3)ccc21` [Example 236, 1-(1-Ethyl-propyl)-2-thiophen-2-ylmethyl-1H-benzoimidazole-5-carboxylic acid [(S)-1-(4-methoxy-benzylcarbamoyl)-3-methyl-butyl]-amide] the figure was 3870 nM. Consider `CCC(CC)n1c(CC2CCCC2)nc2cc(C(=O)NC3(CO)CCCC3)ccc21` [Example 179, 2-Cyclopentylmethyl-1-(1-ethyl-propyl)-1H-benzoimidazole-5-carboxylic acid (1-hydroxymethyl-cyclopentyl)-amide], for which the 50% effective concentration (EC50) was 25200 nM. Still for that read-out and setting: with `CCC(CC)n1c(Cc2cccs2)nc2cc(C(=O)N[C@@H](CC(C)C)C(=O)NC(C)CN(C)C)ccc21` (stereo partly drawn) [Example 243, 1-(1-Ethyl-propyl)-2-thiophen-2-ylmethyl-1H-benzoimidazole-5-carboxylic acid [(S)-1-(2-dimethylamino-1-methyl-ethylcarbamoyl)-3-methyl-butyl]-amide] the figure was 771 nM; with `CCC(CC)n1c(Cc2ccc(Cl)s2)nc2cc(C(=O)N[C@@H](CC(C)C)C(=O)O)ccc21` [Example 82, (S)-2-{[2-(5-Chloro-thiophen-2-ylmethyl)-1-(1-ethyl-propyl)-1H-benzoimidazole-5-carbonyl]-amino}-4-methyl-pentanoic acid], 23300 nM.
